In US8173638B2 (Boehringer Ingelheim International GmbH, priority 2006, dated 2012):

Target: T1, human CB2R (Homo sapiens, UniProt P34972)
T1 construct: host or cells: CHO cells
Assay: CB2R mediated modulation of cAMP synthesis
Format: cell-based
Settings: found through the use of the described assays (CB2 agonists); qualitative statement
Procedure, shortened: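 Forskolin (10 uM)-driven cAMP in human CB2R-expressing CHO cells, read with DiscoverX-XS kit after 30 min compound exposure at 37 °C, 1 mM IBMX, 0.25% BSA. 100% defined as forskolin cAMP relative to 1 uM CP55940 inhibition. Agonist EC50 via four-parameter logistic model.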

T1 sequence (P34972 whole entry): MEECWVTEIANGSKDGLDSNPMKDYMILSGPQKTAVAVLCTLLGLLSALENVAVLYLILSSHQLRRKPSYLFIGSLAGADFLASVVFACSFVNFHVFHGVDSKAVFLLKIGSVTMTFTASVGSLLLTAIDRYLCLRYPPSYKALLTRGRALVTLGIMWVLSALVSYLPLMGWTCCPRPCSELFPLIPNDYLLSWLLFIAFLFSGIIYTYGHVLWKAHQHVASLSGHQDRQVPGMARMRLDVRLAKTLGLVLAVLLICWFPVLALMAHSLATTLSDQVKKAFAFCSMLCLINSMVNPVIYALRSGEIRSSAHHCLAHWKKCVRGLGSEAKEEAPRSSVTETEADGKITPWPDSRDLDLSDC

| Structure (SMILES) | agonistic activity |
| --- | --- |
| Cn1c(NC(=O)N2CCCN(C(=O)C3CCOCC3)CC2)nc2ccccc21 [4-(Tetrahydro-pyran-4-carbonyl)-[1,4]diazepane-1-carboxylic acid (1-methyl-1H-benzoimidazol-2-yl)-amide] | agonistic activity |
| Cn1nc(-c2ccccc2)cc1NC(=O)N1CCCN(C(=O)C2CCOCC2)CC1 [4-(Tetrahydro-pyran-4-carbonyl)-[1,4]diazepane-1-carboxylic acid (2-methyl-5-phenyl-2H-pyrazol-3-yl)-amide] | agonistic activity |
| O=C(Nc1cc(-c2ccccc2)no1)N1CCCN(C(=O)C2CCOCC2)CC1 [4-(Tetrahydro-pyran-4-carbonyl)-[1,4]diazepane-1-carboxylic acid (3-phenyl-isoxazol-5-yl)-amide] | agonistic activity |
| CCC(C)c1cc(NC(=O)N2CCCN(C(=O)C3CCOCC3)CC2)on1 (centres unmarked) [4-(Tetrahydro-pyran-4-carbonyl)-[1,4]diazepane-1-carboxylic acid (3-sec-butyl-isoxazol-5-yl)-amide] | agonistic activity |
| O=C(Nc1nc2c(s1)CCCC2)N1CCCN(C(=O)C2CCOCC2)CC1 [4-(Tetrahydro-pyran-4-carbonyl)-[1,4]diazepane-1-carboxylic acid (4,5,6,7-tetrahydro-benzothiazol-2-yl)-amide] | agonistic activity |
| Cc1nc(NC(=O)N2CCCN(C(=O)C3CCOCC3)CC2)sc1C [4-(Tetrahydro-pyran-4-carbonyl)-[1,4]diazepane-1-carboxylic acid (4,5-dimethyl-thiazol-2-yl)-amide] | agonistic activity |
| CCCCc1ccc(NC(=O)N2CCCN(C(=O)C3CCOCC3)CC2)cc1 [4-(Tetrahydro-pyran-4-carbonyl)-[1,4]diazepane-1-carboxylic acid (4-butyl-phenyl)-amide] | agonistic activity |
| CCc1ccnc(NC(=O)N2CCCN(C(=O)C3CCOCC3)CC2)c1 [4-(Tetrahydro-pyran-4-carbonyl)-[1,4]diazepane-1-carboxylic acid (4-ethyl-pyridin-2-yl)-amide] | agonistic activity |
| CC(C)c1ccc(NC(=O)N2CCCN(C(=O)C3CCOCC3)CC2)cc1 [4-(Tetrahydro-pyran-4-carbonyl)-[1,4]diazepane-1-carboxylic acid (4-isopropyl-phenyl)-amide] | agonistic activity |
| Cc1csc(NC(=O)N2CCCN(C(=O)C3CCOCC3)CC2)n1 [4-(Tetrahydro-pyran-4-carbonyl)-[1,4]diazepane-1-carboxylic acid (4-methyl-thiazol-2-yl)-amide] | agonistic activity |
| O=C(Nc1nc(-c2ccccc2)cs1)N1CCCN(C(=O)C2CCOCC2)CC1 [4-(Tetrahydro-pyran-4-carbonyl)-[1,4]diazepane-1-carboxylic acid (4-phenyl-thiazol-2-yl)-amide] | agonistic activity |
| CCC(C)c1ccc(NC(=O)N2CCCN(C(=O)C3CCOCC3)CC2)cc1 (centres unmarked) [4-(Tetrahydro-pyran-4-carbonyl)-[1,4]diazepane-1-carboxylic acid (4-sec-butyl-phenyl)-amide] | agonistic activity |
| Cc1sc(NC(=O)N2CCCN(C(=O)C3CCOCC3)CC2)nc1C(C)(C)C [4-(Tetrahydro-pyran-4-carbonyl)-[1,4]diazepane-1-carboxylic acid (4-tert-butyl-5-methyl-thiazol-2-yl)-amide] | agonistic activity |
| CC(C)(C)c1csc(NC(=O)N2CCCN(C(=O)C3CCOCC3)CC2)n1 [4-(Tetrahydro-pyran-4-carbonyl)-[1,4]diazepane-1-carboxylic acid (4-tert-butyl-thiazol-2-yl)-amide] | agonistic activity |
| O=C(Nc1ccc(C(F)(F)F)cc1)N1CCCN(C(=O)C2CCOCC2)CC1 [4-(Tetrahydro-pyran-4-carbonyl)-[1,4]diazepane-1-carboxylic acid (4-trifluoromethyl-phenyl)-amide] | agonistic activity |
| O=C(Nc1cc(-c2ccccc2)on1)N1CCCN(C(=O)C2CCOCC2)CC1 [4-(Tetrahydro-pyran-4-carbonyl)-[1,4]diazepane-1-carboxylic acid (5-phenyl-isoxazol-3-yl)-amide] | agonistic activity |
| CC(C)(C)c1cc(NC(=O)N2CCCN(C(=O)C3CCOCC3)CC2)[nH]n1 [4-(Tetrahydro-pyran-4-carbonyl)-[1,4]diazepane-1-carboxylic acid (5-tert-butyl-2H-pyrazol-3-yl)-amide] | agonistic activity |
| CC(C)(C)c1cc(NC(=O)N2CCCN(C(=O)C3CCOCC3)CC2)no1 [4-(Tetrahydro-pyran-4-carbonyl)-[1,4]diazepane-1-carboxylic acid (5-tert-butyl-isoxazol-3-yl)-amide] | agonistic activity |

Results, then the compound that gave them:

| agonistic activity | Structure (SMILES) |
| --- | --- |
| agonistic activity | O=C(Nc1cc(C(F)(F)F)ccn1)N1CCCN(C(=O)C2CCOCC2)CC1 [4-(Tetrahydro-pyran-4-carbonyl)-[1,4]diazepane-1-carboxylic acid (4-trifluoromethyl-pyridin-2-yl)-amide] |
| agonistic activity | O=C(Nc1ccc(SC(F)(F)F)cc1)N1CCCN(C(=O)C2CCOCC2)CC1 [4-(Tetrahydro-pyran-4-carbonyl)-[1,4]diazepane-1-carboxylic acid (4-trifluoromethylsulfanyl-phenyl)-amide] |
| agonistic activity | CC(C)c1cnc(NC(=O)N2CCCN(C(=O)C3CCOCC3)CC2)s1 [4-(Tetrahydro-pyran-4-carbonyl)-[1,4]diazepane-1-carboxylic acid (5-isopropyl-thiazol-2-yl)-amide] |
| agonistic activity | CCC(C)c1cc(NC(=O)N2CCCN(C(=O)C3CCOCC3)CC2)n(C)n1 (centres unmarked) [4-(Tetrahydro-pyran-4-carbonyl)-[1,4]diazepane-1-carboxylic acid (5-sec-butyl-2-methyl-2H-pyrazol-3-yl)-amide] |
| agonistic activity | CCC(C)c1ccc(NC(=O)N2CCCN(C(=O)C3CCOCC3)CC2)nc1 (centres unmarked) [4-(Tetrahydro-pyran-4-carbonyl)-[1,4]diazepane-1-carboxylic acid (5-sec-butyl-pyridin-2-yl)-amide] |
| agonistic activity | Cc1nc(NC(=O)N2CCCN(C(=O)C3CCOCC3)CC2)sc1C(C)(C)C [4-(Tetrahydro-pyran-4-carbonyl)-[1,4]diazepane-1-carboxylic acid (5-tert-butyl-4-methyl-thiazol-2-yl)-amide] |
| agonistic activity | O=C(Nc1ccc(C(F)(F)F)cn1)N1CCCN(C(=O)C2CCOCC2)CC1 [4-(Tetrahydro-pyran-4-carbonyl)-[1,4]diazepane-1-carboxylic acid (5-trifluoromethyl-pyridin-2-yl)-amide] |
| agonistic activity | O=C(Nc1ccc(Oc2ccccc2)nc1)N1CCCN(C(=O)C2CCOCC2)CC1 [4-(Tetrahydro-pyran-4-carbonyl)-[1,4]diazepane-1-carboxylic acid (6-phenoxy-pyridin-3-yl)-amide] |
| agonistic activity | CC(c1ccc(NC(=O)N2CCCN(C(=O)C3CCOCC3)CC2)cc1)C(F)(F)F (centres unmarked) [4-(Tetrahydro-pyran-4-carbonyl)-[1,4]diazepane-1-carboxylic acid [4-(2,2,2-trifluoro-1-methyl-ethyl)-phenyl]-amide] |
| agonistic activity | O=C(Nc1ccc2ccccc2c1)N1CCCN(C(=O)C2CCOCC2)CC1 [4-(Tetrahydro-pyran-4-carbonyl)-[1,4]diazepane-1-carboxylic acid naphthalen-2-ylamide] |
| agonistic activity | O=C(Nc1cnc2ccccc2c1)N1CCCN(C(=O)C2CCOCC2)CC1 [4-(Tetrahydro-pyran-4-carbonyl)-[1,4]diazepane-1-carboxylic acid quinolin-3-ylamide] |
| agonistic activity | CC(C)(C)c1cc(NC(=O)N2CCCN(C(=O)N3CCSCC3)CC2)no1 [4-(Thiomorpholine-4-carbonyl)-[1,4]diazepane-1-carboxylic acid (5-tert-butyl-isoxazol-3-yl)-amide] |
| agonistic activity | CC(C)(C)c1cc(NC(=O)N2CCCN(C(=O)N3CCCOCC3)CC2)no1 [4-([1,4]Oxazepane-4-carbonyl)-[1,4]diazepane-1-carboxylic acid (5-tert-butyl-isoxazol-3-yl)-amide] |
| agonistic activity | CCCCc1ccc(NC(=O)N2CCCN(C(=O)c3ccccc3)CC2)cc1 [4-Benzoyl-[1,4]diazepane-1-carboxylic acid (4-butyl-phenyl)-amide] |
| agonistic activity | CC(C)c1ccc(NC(=O)N2CCCN(C(=O)c3ccccc3)CC2)cc1 [4-Benzoyl-[1,4]diazepane-1-carboxylic acid (4-isopropyl-phenyl)-amide] |
| agonistic activity | O=C(Nc1ccc(C(F)(F)F)cc1)N1CCCN(C(=O)c2ccccc2)CC1 [4-Benzoyl-[1,4]diazepane-1-carboxylic acid (4-trifluoromethyl-phenyl)-amide] |
| agonistic activity | CC(C)(C)c1cc(NC(=O)N2CCCN(C(=O)C3CCCCCC3)CC2)no1 [4-Cycloheptanecarbonyl-[1,4]diazepane-1-carboxylic acid (5-tert-butyl-isoxazol-3-yl)-amide] |
| agonistic activity | O=C(Nc1ccc(Cl)c(Cl)c1)N1CCCN(C(=O)C2CCCCC2)CC1 [4-Cyclohexanecarbonyl-[1,4]diazepane-1-carboxylic acid (3,4-dichloro-phenyl)-amide] |
| agonistic activity | O=C(Nc1cc(Cl)cc(Cl)c1)N1CCCN(C(=O)C2CCCCC2)CC1 [4-Cyclohexanecarbonyl-[1,4]diazepane-1-carboxylic acid (3,5-dichloro-phenyl)-amide] |
| agonistic activity | CCc1ccc(NC(=O)N2CCCN(C(=O)C3CCCCC3)CC2)cc1 [4-Cyclohexanecarbonyl-[1,4]diazepane-1-carboxylic acid (4-ethyl-phenyl)-amide] |
